According to ChEMBL document CHEMBL1201862, “PubChem BioAssay data set” (2004):
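Briefly, cells in 96-well plates were exposed to five compound concentrations for 48 h, and endpoints were estimated by linear interpolation. GI50 = concentration required for 50% inhibition of growth.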 Calls of active or inactive are those of the source. Rule as the data show it: active = GI50 up to about 1.1 µM and inactive = higher.

Columns and labels:
Assay in all cases: growth of human tumour cells (NCI), 48 h
[1] = tested on: NCI-H226
[2] = tested on: HCT-116
[3] = tested on: NCI-H460
[4] = tested on: SW-620
[5] = tested on: Malme-3M
[6] = tested on: ACHN
[7] = tested on: SNB-75
[8] = tested on: U-251
[9] = tested on: SF-268
[10] = tested on: UO-31
[11] = tested on: A498
[12] = tested on: SN12C
[13] = tested on: NCI-H23
[14] = tested on: OVCAR-3
[15] = tested on: SK-MEL-28

Measured: GI50

BrC12c3ccccc3Sc3ccccc3C1(Br)c1ccccc12 (stereo not drawn)
inactive: [1] 16.7 µM | [2] 22 µM | [3] 40.2 µM | [4] 36.2 µM | [5] 30.7 µM | [6] 24.2 µM | [7] 27.3 µM | [8] 17.7 µM | [9] 32.4 µM | [10] 33 µM | [11] 22.9 µM | [12] 25.8 µM

CC(C)=CCC/C(=C/CC/C(C)=C/CCc1ccoc1)C(=O)O
inactive: [13] > 100 µM | [1] 73.5 µM | [2] > 100 µM | [3] > 100 µM | [4] > 100 µM | [5] > 100 µM | [14] > 100 µM | [6] > 100 µM | [7] > 100 µM | [15] > 100 µM | [8] > 100 µM | [9] > 100 µM | [10] > 100 µM | [11] > 100 µM | [12] > 100 µM

Cc1c(Cl)cccc1NC(=O)C(=O)C1C(=O)NC(=O)NC1=O
inactive: [13] > 100 µM | [1] > 100 µM | [2] > 100 µM | [3] > 100 µM | [4] > 100 µM | [5] > 100 µM | [14] > 100 µM | [6] > 100 µM | [7] > 100 µM | [15] > 100 µM | [8] > 100 µM | [9] > 100 µM | [10] > 100 µM | [11] > 100 µM | [12] > 100 µM

O=C1C[C@@H]2CCCC[C@@H]2C12SCCS2
inactive: [13] 95.1 µM | [2] > 100 µM | [3] > 100 µM | [4] > 100 µM | [5] > 100 µM | [14] > 100 µM | [6] > 100 µM | [7] 61.9 µM | [15] 89.3 µM | [8] > 100 µM | [9] > 100 µM | [10] 32.1 µM | [11] > 100 µM | [12] > 100 µM

CCSc1c2ccccc2c(-c2nc(F)nc(F)n2)n1CCc1ccccc1
inactive: [13] > 100 µM | [1] > 100 µM | [2] > 100 µM | [3] > 100 µM | [4] > 100 µM | [5] > 100 µM | [14] > 100 µM | [6] > 100 µM | [15] > 100 µM | [8] > 100 µM | [9] > 100 µM | [10] > 100 µM | [11] 86.5 µM | [12] > 100 µM

COCC12CC(CC1=O)C1C2ON2c3ccccc3C(=O)C12c1ccccc1 (stereo not drawn)
inactive: [13] > 100 µM | [1] > 100 µM | [2] > 100 µM | [4] > 100 µM | [5] > 100 µM | [6] > 100 µM | [7] > 100 µM | [15] > 100 µM | [8] > 100 µM | [9] > 100 µM | [10] > 100 µM | [11] > 100 µM | [12] > 100 µM

CN1CCC(CN2c3ccccc3Sc3ccccc32)CC1
inactive: [13] 16.4 µM | [1] 15.4 µM | [2] 12.6 µM | [3] 14.7 µM | [4] 15.3 µM | [14] 15.3 µM | [6] 16 µM | [15] 11 µM | [8] 15.7 µM | [9] 15.4 µM | [10] 10.1 µM | [11] 15.6 µM | [12] 19.1 µM

COCCNC(=O)C1C(=O)N(CCOC)C(=O)/C1=N/N (stereo not drawn)
inactive: [13] > 100 µM | [1] > 100 µM | [2] > 100 µM | [4] > 100 µM | [5] > 100 µM | [14] > 100 µM | [6] > 100 µM | [7] > 100 µM | [15] > 100 µM | [8] > 100 µM | [9] > 100 µM | [10] > 100 µM | [12] > 100 µM

O=c1[nH]nc2ccccc2c1Cl
inactive: [13] 15.1 µM | [1] 24.6 µM | [2] 16.3 µM | [3] 18.5 µM | [4] 13.8 µM | [5] 16.2 µM | [14] 2.65 µM | [6] 16.3 µM | [7] 10.7 µM | [15] > 10 µM | [8] 15.8 µM | [9] 17.8 µM | [10] 15 µM | [11] 17.5 µM | [12] 17.6 µM

COC1C2C[C@@H](O)CCC2C(C(=O)OCCl)C[C@H]1O (stereo partly drawn)
inactive: [1] > 100 µM | [2] > 100 µM | [3] > 100 µM | [4] > 100 µM | [5] > 100 µM | [14] > 100 µM | [6] > 100 µM | [7] > 100 µM | [15] > 100 µM | [8] > 100 µM | [9] > 100 µM | [10] > 100 µM | [11] > 100 µM | [12] > 100 µM
